17 compounds from patent publication US20040086983A1, “Method for producing a heterocyclic compound and an aromatic carboxylic acid having one or more hydroxyl groups, and modified aromatic ring dioxygenase” (priority 2000, published 2004) can be followed below.

Molecules are shown by their SMILES.

For assay [1], the system named is biphenyl dioxygenase derived from the strain Pseudomonas pseudoalcaligenes KF707 (bphA1A2A3A4) expressed in E. coli (pKF6622). It is filed as cell-based. As to conditions: 5 mg substrate in 70 ml M9 medium; for conversion rate: 28° C., 2 to 3 days, ratio of HPLC peak areas (max plot 230 to 350 nm); for conversion products observed: HPLC analysis. On the procedure: (§1) To start the conversion reaction, first, the necessary E. coli transformant cells were removed from the abovementioned glycerol stock culture with a platinum loop, suspended in 4 ml of LB medium containing 150 μg/ml ampicillin (Ap) and cultured at 28° C. for 7 to 8 hours at 175 rpm (pre-culture). […] The cells were recovered by centrifugation at 8,000 rpm for 5 minutes and suspended in 70 ml of M9 medium (supplemented with 150 μg/ml Ap, 0.4% (w/v) glucose, and 10 μg/ml thiamine) containing isopropyl-1-thio-β-D-galactopyranoside (IPTG) at a final concentration of 1 mM and 5 mg of a substrate, and the cultivation was further carried out at 28° C. for 2 to 3 days at 175 rpm. The substrate used was prepared by dissolving it in a solvent, such as ethanol, generally at a concentration of 10 mg/ml and added in an amount of 0.5 ml. On day 2 or 3 of the cultivation, the lipid was extracted by adding 70 ml of methanol and stirring for 30 minutes, and the supernatant was collected by centrifugation at 8,000 rpm for 5 minutes to obtain a crude lipid extract.
(§2) The HPLC analysis was carried out using a Puresil C18 column (4.6 mm×250 mm, Waters) at a rate of 1 ml/min. […] Conditions for development with solvents were as follows:
(§3) Solution A: water/methanol (50/50)
(§4) Solution B: methanol/2-propanol (60/40)
(§5) 0 to 5 min (solution A), 5 to 20 min (solution A)→(solution B) convex gradient (No. 3, Waters), 20 min−(solution B)
(§6) The conversion rate was expressed by a ratio of peak areas monitored at the wave length where the maximum absorbance was observed within the range from 230 to 350 nm (max plot).

Assay [2] has as its system modified biphenyl dioxygenase (modified bphA1::bphA2A3A4) expressed in E. coli (pKF2072). It is filed as cell-based, Pseudomonas pseudoalcaligenes KF707. As to conditions: 5 mg substrate in 70 ml M9 medium, 28° C., 2 to 3 days, ratio of HPLC peak areas (max plot 230 to 350 nm). On the procedure: as §1, §2, §3, §4, §5, §6
For assay [3], the system named is modified bphA1::bphA2A3A4 expressed in Streptomyces lividans TK21 (pIJ-2072). Put plainly: Conversion experiment using recombinant actinomycetes (pIJ-2072), HPLC analysis. Type of assay: cell-based, Pseudomonas pseudoalcaligenes KF707. As to conditions: substrate 0.1 mg/ml, cells 10 mg/ml, 30° C., 2 days. On the procedure:
Plasmid pKF2072 was double-digested with SacI/SmaI, after which a 4.06 kb fragment containing the modified bphA1::bphA2A3A4 was excised. Then, vector pIJ6021 for actinomycetes (see E. Takano, J. White, C. J. Thompson, M. J. Bibb, Gene, 166, 133-137, 1995) was double-digested with NdeI-HindIII, and then the abovementioned 4.06 kb SacI-HindIII fragment and a synthesized DNA 5′-[…]-3′ were added. After annealing, treatment with a Klenow fragment enzyme was followed by a ligation reaction. E. coli JM109 strain was transformed, after which the objective plasmid pIJ-2072 was obtained. The pIJ-2072 was designed so that the modified bphA1 gene is located immediately downstream of a powerful actinomycetes promoter PtipA and its ribosome binding site, being followed by the bphA2A3A4 gene. Namely, the 5′ binding site is […]. The underlined segment is the ribosome binding site, and the modified bphA1 gene starts at ATG from nucleotide 18 to nucleotide 20. This plasmid pIJ-2072 was used to transform actinomycetes Streptomyces lividans TK21 (see D. A. Hopwood, M. J. Bibb, K. F. Chater et al., Genetic Manipulation of Streptomyces: A laboratory Manual, The John Innes Institute, Norwich, 1985). […]

On to `c1ccc(Cc2cnsc2)cc1` [4-benzylisothiazole], for which the conversion rate is 27% in assay [1] and 65% in assay [2].
As to `O=C1CC(c2ccccc2)c2ccccc21` (centres unmarked) [3-phenyl-1-indanone], the conversion rate in assay [1] worked out at 93%; in assay [2], 97%.
The corresponding values for `c1ccc(-n2cccc2)cc1` [1-phenylpyrrole] are 100% and 100%.
The like results for `Cc1ccn(-c2ccccc2)n1` [3-methyl-1-phenylpyrazole] were, in that order, 63% and 100%.
Consider `c1ccc(-n2cccn2)cc1` [1-phenylpyrazole], for which the conversion products observed result in assay [1] is listed as “hardly observed”. Besides, the conversion rate in assay [2] turned out to be 47%.
Regarding `c1ccc(-c2ccncn2)cc1` [4-phenylpyrimidine], in assay [1], the conversion products observed entry is “hardly observed”. Moreover, the conversion rate in assay [2] was 100%.
Turning to `c1ccc(Cc2ccccn2)cc1` [2-benzylpyridine], the results for the conversion rate in assay [1] and in assay [2] were 11% and 57%, respectively.
Regarding `c1ccc(-c2cc3ccccc3[nH]2)cc1` [2-phenylindole], the conversion rate in assay [1] is reported as 23%; in assay [2] it was 71%.
The corresponding values for `CCCCc1cc2ccccc2o1` [2-n-butylbenzofuran] are 90% and 100%.
The corresponding values for `c1ccc(-c2nc3ccccc3o2)cc1` [2-phenylbenzoxazole] are 45% and 100%.
As for `Cc1ccc(-c2ccccn2)cc1` [2-(p-tolyl)pyridine], the conversion rate is 61% in assay [1] and 96% in assay [2].
The corresponding values for `c1ccc(-c2nc3ccccc3s2)cc1` [2-phenylbenzothiazole] are 36% and 81%.
The like results for `c1ccc(Cn2ccnc2)cc1` [1-benzylimidazole] were, in that order, 43% and 97%.
Turning to `c1ccc(-c2ccc3ccccc3n2)cc1` [2-phenylquinoline], the conversion rate is given as 53% in assay [1] and 89% in assay [2]. The “converted into its diol derivative, yield” value in assay [3] is listed as about 100%.
For the compound `Oc1ccccc1-c1nc2ccccc2o1` [2-(2-hydroxyphenyl)-benzoxazole], the results for the conversion rate in assay [1] and in assay [2] were 25% and 39%, respectively.
With `Cc1cccnc1-c1ccccc1` [3-methyl-2-phenylpyridine], the conversion products observed result in assay [1] is listed as “hardly observed”. Besides, the conversion rate in assay [2] is on record as 16%.
`CCCCCCc1ccsc1` [3-n-hexylthiophene]: the figures for the conversion rate in assay [1] and in assay [2] were 99% and 100%, respectively.
